The test system of one data set is H460. Put plainly: Tumour cell proliferation, CellTiter-Glo, 96 h. The data set is classed as cell-based. Particulars: 96-hour incubation. As to the method: (§1) In accordance with the invention, the substances were tested in cell-based assays for the ability of the substances of inhibiting tumour cell proliferation after a 96-hour incubation with the substance. Cell viability was tested using the CellTiter-Glo® luminescent cell viability assay (Promega). The cells were sown at a density of 2000-5000 cells/well (depending on the cell line) in 100 μl growth medium on 96-well microtitre plates. For each cell line examined, cells were sown on a separate plate to determine the luminescence at t=0 hours and t=96 hours. After overnight incubation at 37° C., the luminescence values for the t=0 samples were determined. The dose plates for the t=96 hours points in time were treated with substances diluted with growth medium. The cells were then incubated at 37° C. for 96 hours, and the luminescence values for the t=96 hours samples were then determined. For data analysis, the t=0 values were subtracted from the t=96 hours values for treated and untreated samples. The differences in luminescence in percent between substance-treated samples and control values were used to determine the growth inhibition in percent.
(§2) The substances were tested in the following cell lines which represent the stated indications in an exemplary manner: […]
For orientation: ATP-based viability assays read luminescence as a measure of living cells.

The subject of a further data set is KM12. Briefly: Tumour cell proliferation, CellTiter-Glo, 96 h. To be noted: 96-hour incubation. Format: cell-based. As to the method: as §1, §2
The subject of a further data set is MCF7. Put plainly: Tumour cell proliferation, CellTiter-Glo, 96 h. Particulars: 96-hour incubation. Format: cell-based. As to the method: as §1, §2
Another data set relates to PC3. Put plainly: Tumour cell proliferation, CellTiter-Glo, 96 h. Format: cell-based. Particulars: 96-hour incubation. As to the method: as §1, §2
The nature of data set [1]: Octanol/water distribution coefficient (logP/D), isocratic HPLC method. The data set is classed as physicochemical. To be noted: for chromatographic logP: octanol/water, pH 7.4, pH7.4. An excerpt: Assay for Determining the Octanol/Water Distribution Coefficient (logP/D): The distribution coefficient octanol/water P or D is a key parameter for estimating membrane penetration and permeability. It is defined as the ratio of the equilibrium concentrations of a substance in the two-phase system octanol/water. [formula] P=partition D=distribution c(octanol)=concentration of the substance in the octanol phase c(water)=concentration of the substance in the aqueous phase It is usually stated in form of the decadic logarithm (logP or logD). logP describes the distribution behaviour of a substance exclusively present in its neutral form. logD describes the distribution behaviour of a substance at a certain pH; depending on the ionisation constant pKa of the substance, some of the substance may be present in ionic form, and some in neutral form. The logP/D of the active compounds was determined using an isocratic HPLC method (HPLC=high performance liquid chromatography) (literature: OECD Guideline for Testing of Chemicals No. 117). The method is based on the correlation of the HPLC retention time of the test substance to that of reference substances with known distribution coefficients. […] The nine reference substances were dissolved individually in methanol. 100 μl each of the stock solutions were added to an HPLC vial and mixed with 300 μl of water. [table] A formamide solution was used to determine the hold-up time. To this end, 7 mg of formamide were dissolved in 10 ml of methanol. 100 μl of this stock solution were mixed with 500 μl of methanol and 200 μl of water. […] [table] [table] Injection Protocol: formamide, references, test substance 1, test substance 2, . . . , formamide, references. Evaluation of the retention times was carried out in a diode array detector (DAD) at 200-400 nm Via the molecular mass, the identity of the test substance was checked using the downstream mass spectrometer. The HPLC run was evaluated using the Waters software Masslynx 4.1. The logP/D values were calculated using the software “POW Determination” (proprietary development).

For data set [2], the target named is human serum albumin (HSA) (Homo sapiens (Human), UniProt P02768). Briefly: Protein binding to human serum albumin (HSA-Transil). To be noted: buffer pH 7.4. As to the method:
Assays for Determining Membrane Affinity logMA and Protein Binding to Human Serum Albumin (HSA): Determination of membrane affinity and protein binding to human serum albumin (HSA) was carried out via Transil technology (literature: A. Loidl-Stahlhofen, A. Eckert, T. Hartmann, M. […] Pharm Sci 90, 599-606 (2001)). Transil® (commercially available from Sovicell in Leipzig, Germany) are glass beads (diameter 10-12 μm) coated with a double-layer membrane of phosphatidylcholine (MA-Transil) or covalently attached human serum albumin (HSA-Transil). To determine the logMA and the protein binding constant to HSA, the commercially available TRANSIL Intestinal Absorption & HSA Binding Combined Assay Kit was used. This is a 96-well microtitre plate (96 well-MTP) which is filled with Transil and can be used to determine MA-Transil and HSA-Transil binding of in each case eight active compounds. […] Two wells serve as reference and are only filled with buffer pH 7.4. Five further wells contain MA-Transil in various increasing concentrations, the five remaining wells contain HSA-Transil in various increasing concentrations. To determine binding of an active compound to Transil, the supernatant of the wells with Transil was quantified against the reference solution without Transil via HPLC-MS coupling (HPLC-MS=high performance liquid chromatography/mass spectrometry). This is how the individual steps of the assay were carried out: From the internal substance store, the active compounds were delivered in a 96-well MTP. This plate is referred to as mother plate. […] Warfarin, whose membrane affinity and binding to HSA is known, serves to check whether the measurement is correct. […] Using a Hamilton pipetting robot Microlab STAR, the 96 active compounds from the daughter plate were divided onto 12 Transil plates in total. From each well of the daughter plate, 12 times 20 μl were removed. The concentration of each well of the Transil plate was 0.25 μmol/liter, which corresponds to a dilution of 1 to 10. […] The filled Transil plates were each resuspended for two minutes, then allowed to stand at room temperature for at least two minutes and then centrifuged at 600 rotations per minute for five minutes. The pipetting robot was then used to remove 20 μl of supernatant from each well of the Transil plate and to transfer these to a separate microtitre plate. […] Prior to quantification of the active compounds by HPLC-MS, an optimization has to be carried out for each active compound where by way of a single injection daughter ion and optimum electrical voltages are determined. […] This microtitre plate was measured by HPLC-MS using the software Discovery Quant Optimize from AB Sciex. The three pooled microtitre plates were measured by HPLC-MS using the software Discovery Quant Analyze from AB Sciex. • Sciex Triple Quad 5500 mass spectrometer (from AB Sciex) • PAL Autosampler DLW Option Software: Analyst 1.4 (from AB Sciex) • Discovery Quant Optimize (from AB Sciex) • Discovery Quant Analyze (from AB Sciex) Optimization: […] Column: Poroshell 120 SB-C18 2.7 μm 3×30 mm Injection volume: 2 μl Flow rate: 1 ml/min: […] Evaluation of the HPLC peaks was carried out using Discovery Quant Analyze. The results (logMA and binding constant to HSA Kd) were calculated using an Excel workbook provided by Sovicell.

pIC50, pKd: −log10 of the molar value.

human serum albumin (HSA), sequence (P02768 25-609): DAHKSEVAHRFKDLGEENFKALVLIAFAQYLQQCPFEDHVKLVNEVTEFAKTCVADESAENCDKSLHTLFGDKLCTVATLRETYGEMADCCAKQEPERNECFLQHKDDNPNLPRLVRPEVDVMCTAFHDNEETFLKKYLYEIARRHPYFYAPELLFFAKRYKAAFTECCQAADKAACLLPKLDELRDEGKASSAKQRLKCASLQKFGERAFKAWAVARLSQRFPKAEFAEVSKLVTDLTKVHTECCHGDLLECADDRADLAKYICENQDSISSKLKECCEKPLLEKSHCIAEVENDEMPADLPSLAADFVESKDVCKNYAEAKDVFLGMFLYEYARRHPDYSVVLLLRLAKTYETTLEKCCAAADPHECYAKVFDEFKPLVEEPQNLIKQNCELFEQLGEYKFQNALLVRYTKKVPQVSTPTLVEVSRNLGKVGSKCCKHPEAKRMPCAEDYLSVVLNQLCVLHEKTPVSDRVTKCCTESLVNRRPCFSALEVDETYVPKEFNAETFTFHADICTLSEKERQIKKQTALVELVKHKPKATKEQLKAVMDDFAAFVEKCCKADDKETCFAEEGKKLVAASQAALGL

The term pIC50 denotes the IC50 on a negative log10 scale, so that one unit is a factor of ten. A word on the chromatographic logP: it is a lipophilicity value derived from retention on a column. Lower therefore signals a more hydrophilic compound. A word on the pKd: it is −log10 of the Kd, conventionally taken in molar units. A higher pKd goes with a low Kd. As for `CO[C@]1(C(F)(F)F)CC[C@]2(CC1)NC(=O)C(c1cc(-c3ccc(Cl)cc3)ccc1C)=C2O` [Example 1-1, (5r,8r)-3-(4′-Chloro-4-methylbiphenyl-3-yl)-4-hydroxy-8-methoxy-8-(trifluoromethyl)-1-azaspiro[4.5]dec-3-en-2-one], the negative logarithm of the IC50 (pIC50) in the data set on H460 (Homo sapiens, NCI-H460) was 7.06; in the data set with KM12 (Homo sapiens, KM12) it was 7.68; with MCF7 (Homo sapiens, MCF7) it was 7.59; with PC3 (Homo sapiens, PC-3), 7.54. Further, in data set [1], the chromatographic logP amounted to 2.44. The negative-log Kd (pKd) in data set [2] was 5.76.
Take `CO[C@]1(C(F)(F)F)CC[C@]2(CC1)NC(=O)C(c1cc(-c3ccc(Cl)c(F)c3)ccc1C)=C2O` [Example 1-2, (5r,8r)-3-(4′-Chloro-3′-fluoro-4-methylbiphenyl-3-yl)-4-hydroxy-8-methoxy-8-(trifluoromethyl)-1-azaspiro[4.5]dec-3-en-2-one]: the pIC50 was 6.98 in the data set on H460 (Homo sapiens, NCI-H460); 7.85 in the data set with KM12 (Homo sapiens, KM12); > 7.85 in the data set on MCF7 (Homo sapiens, MCF7); 7.66 with PC3 (Homo sapiens, PC-3). The chromatographic logP in data set [1] is 2.45. The molecule also showed a negative-log Kd (pKd) in data set [2] of 5.75.
On to `COC[C@]1(OC)CC[C@@]2(CC1)NC(=O)C(c1cc(-c3ccc(Cl)cc3)ccc1C)=C2O` [Example 1-3, (5r,8r)-3-(4′-Chloro-4-methylbiphenyl-3-yl)-4-hydroxy-8-methoxy-8-(methoxymethyl)-1-azaspiro[4.5]dec-3-en-2-one], for which the negative logarithm of the IC50 (pIC50) in the data set on H460 (Homo sapiens, NCI-H460) is 6.44; with KM12 (Homo sapiens, KM12) it was 6.65; with MCF7 (Homo sapiens, MCF7) it was 7.35; with PC3 (Homo sapiens, PC-3) it was 6.71. Also, the chromatographic logP in data set [1] came to 2.3. This molecule also had a pKd in data set [2] of 5.32.
For the molecule `COC[C@]1(OC)CC[C@@]2(CC1)NC(=O)C(c1cc(-c3ccc(Cl)c(F)c3)ccc1C)=C2O` [Example 1-4, (5r,8r)-3-(4′-Chloro-3′-fluoro-4-methylbiphenyl-3-yl)-4-hydroxy-8-methoxy-8-(methoxymethyl)-1-azaspiro[4.5]dec-3-en-2-one], the pIC50 was 6.48 in the data set with H460 (Homo sapiens, NCI-H460); 7.02 in the data set with KM12 (Homo sapiens, KM12); 7.32 in the data set on MCF7 (Homo sapiens, MCF7); 6.92 in the data set with PC3 (Homo sapiens, PC-3). The chromatographic logP in data set [1] worked out at 2.38. Further, the pKd in data set [2] was 5.55.
For the molecule `CO[C@]1(C)CC[C@]2(CC1)NC(=O)C(c1cc(-c3ccc(Cl)cc3)ccc1C)=C2O` [Example V.1-a, (5r,8r)-3-(4′-Chloro-4-methylbiphenyl-3-yl)-4-hydroxy-8-methoxy-8-methyl-1-azaspiro[4.5]dec-3-en-2-one], the negative-log IC50 (pIC50) with H460 was 7.10; in the data set on KM12 it was 7.42; with MCF7, 7.64; in the data set on PC3, 7.46. The “logP/D pH7.4” value in data set [1] is recorded as 2.51. Also, in data set [2], the negative-log Kd (pKd) was 5.32.
As for `CO[C@]1(C)CC[C@]2(CC1)NC(=O)C(c1cc(-c3ccc(Cl)c(F)c3)ccc1C)=C2O` [Example V.2-a, (5r,8r)-3-(4′-Chloro-3′-fluoro-4-methylbiphenyl-3-yl)-4-hydroxy-8-methoxy-8-methyl-1-azaspiro[4.5]dec-3-en-2-one], the pIC50 is 7.09 with H460, 7.14 in the data set with KM12, 7.49 in the data set on MCF7 and 7.34 with PC3. Also, in data set [1], the “logP/D pH7.4” value was 2.52. The same molecule had a negative-log Kd (pKd) in data set [2] of 5.55.
In the case of `Cc1ccc(-c2ccc(Cl)cc2)cc1C1=C(O)[C@]2(CC[C@](O)(C(F)(F)F)CC2)NC1=O` [V.1-c, (5r,8r)-3-(4′-Chloro-4-methylbiphenyl-3-yl)-4,8-dihydroxy-8-(trifluoromethyl)-1-azaspiro[4.5]dec-3-en-2-one], the negative logarithm of the IC50 (pIC50) is 5.73 with H460 (Homo sapiens, NCI-H460); 6.08 with KM12 (Homo sapiens, KM12); 6.56 in the data set with PC3 (Homo sapiens, PC-3). The chromatographic logP in data set [1] was found to be 1.6. The negative logarithm of the Kd (pKd) in data set [2] is 5.16.
On the same counts, the results for `Cc1ccc(-c2ccc(Cl)c(F)c2)cc1C1=C(O)[C@]2(CC[C@](O)(C(F)(F)F)CC2)NC1=O` [V.2-c, (5r,8r)-3-(4′-Chloro-3′-fluoro-4-methylbiphenyl-3-yl)-4,8-dihydroxy-8-(trifluoromethyl)-1-azaspiro[4.5]dec-3-en-2-one] are 5.67, 5.63, 6.12, 1.3 and 5.86.
With `COC[C@H]1CC[C@]2(CC1)NC(=O)C(c1cc(-c3ccc(Cl)cc3)ccc1C)=C2O` [V.3-b, (5s,8s)-3-(4′-Chloro-4-methylbiphenyl-3-yl)-4-hydroxy-8-(methoxymethyl)-1-azaspiro[4.5]dec-3-en-2-one], the pIC50 with H460 (Homo sapiens, NCI-H460) is 7.17; in the data set with KM12 (Homo sapiens, KM12) it was 7.51; in the data set on MCF7 (Homo sapiens, MCF7), 7.64; with PC3 (Homo sapiens, PC-3) it was 7.44. The chromatographic logP in data set [1] was 2.5. Besides, the negative logarithm of the Kd (pKd) in data set [2] is 5.38.
Turning to `COC[C@H]1CC[C@]2(CC1)NC(=O)C(c1cc(-c3ccc(Cl)c(F)c3)ccc1C)=C2O` [V.4-b, (5s,8s)-3-(4′-Chloro-3′-fluoro-4-methylbiphenyl-3-yl)-4-hydroxy-8-(methoxymethyl)-1-azaspiro[4.5]dec-3-en-2-one], the negative logarithm of the IC50 (pIC50) in the data set with H460 (Homo sapiens, NCI-H460) was 7.37; in the data set with KM12 (Homo sapiens, KM12) it was 7.46; in the data set with MCF7 (Homo sapiens, MCF7) it was 7.70; in the data set with PC3 (Homo sapiens, PC-3), 7.52. The same molecule gave a chromatographic logP in data set [1] of 2.57. Moreover, the pKd in data set [2] is 5.44.

These data come from US9278925B2, “Substituted 3-(biphenyl-3-yl)-4-hydroxy-8-methoxy-1-azaspiro[4.5]dec-3-en-2-one” (BAYER INTELLECTUAL PROPERTY GMBH, priority 2011, dated 2016).
